From PMC3404744 (Molecular Pharmaceutics, 2011)

Columns and labels:
UGT1A1 [1] = target: T1, UGT1A1 (Homo sapiens, UniProt P22309); assay: Glucuronidation kinetics with recombinant human UGT1A1; type: in vitro ADME; details: for Glucuronide isomers formed by UGT1A1: recombinant UGT1A1
T1 sequence (P22309 26-533): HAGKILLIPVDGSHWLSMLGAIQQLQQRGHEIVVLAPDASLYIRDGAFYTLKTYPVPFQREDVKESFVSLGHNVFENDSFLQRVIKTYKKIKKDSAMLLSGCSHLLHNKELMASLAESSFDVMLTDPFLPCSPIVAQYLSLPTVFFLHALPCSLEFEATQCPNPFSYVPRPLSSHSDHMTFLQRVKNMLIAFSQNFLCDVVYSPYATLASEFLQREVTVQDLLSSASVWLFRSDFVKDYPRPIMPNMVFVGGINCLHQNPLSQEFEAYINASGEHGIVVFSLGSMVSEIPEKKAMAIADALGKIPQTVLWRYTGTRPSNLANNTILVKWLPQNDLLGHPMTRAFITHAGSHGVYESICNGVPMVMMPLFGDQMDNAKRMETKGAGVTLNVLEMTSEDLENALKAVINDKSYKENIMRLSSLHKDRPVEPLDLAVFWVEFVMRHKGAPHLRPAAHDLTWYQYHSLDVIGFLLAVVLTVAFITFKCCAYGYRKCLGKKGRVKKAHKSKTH

[2] = tested on: 12 recombinant human UGT isoforms; assay: Phenotyping using 12 recombinant UGTs; type: in vitro ADME; details: by CLint
[3] = tested on: pooled human liver microsomes (pHLM); assay: Glucuronidation kinetic profile in pooled human liver microsomes; type: in vitro ADME; details: flavonoids 4′-O-glucuronidation, SN-38 glucuronidation
UGT1A9 = target: T2, UGT1A9 (Homo sapiens, UniProt O60656); assay: Glucuronidation kinetics with recombinant human UGT1A9; type: in vitro ADME; details: 10 μM
T2 sequence (O60656 26-530): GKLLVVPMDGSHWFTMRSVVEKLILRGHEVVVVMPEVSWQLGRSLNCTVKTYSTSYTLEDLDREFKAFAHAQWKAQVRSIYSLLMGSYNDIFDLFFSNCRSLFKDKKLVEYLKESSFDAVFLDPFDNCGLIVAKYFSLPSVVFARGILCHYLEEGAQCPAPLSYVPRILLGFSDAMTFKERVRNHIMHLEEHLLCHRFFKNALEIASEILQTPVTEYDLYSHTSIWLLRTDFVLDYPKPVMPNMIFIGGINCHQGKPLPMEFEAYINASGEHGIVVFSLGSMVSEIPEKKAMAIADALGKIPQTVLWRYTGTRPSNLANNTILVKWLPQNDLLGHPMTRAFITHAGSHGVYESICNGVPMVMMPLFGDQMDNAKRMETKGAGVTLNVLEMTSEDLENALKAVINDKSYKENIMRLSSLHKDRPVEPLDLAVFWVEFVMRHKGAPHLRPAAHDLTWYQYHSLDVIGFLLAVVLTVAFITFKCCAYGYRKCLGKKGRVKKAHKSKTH

UGT1A1 [4] = target: T1, UGT1A1; type: in vitro ADME
[5] = after a standard therapy; cited from earlier work

| Km for recombinant UGT1A1 (4′-O-glucuronidation) compared with pooled HLM (UGT1A1 [1]) | Glucuronide isomers formed by UGT1A1 (UGT1A1 [1]) | Main isoforms glucuronidating the flavonoid [2] | Pattern of kinetic profile [3] | UGT1A9 activity, folds less than that of UGT1A1 (UGT1A9) [folds] | Glucuronidation in pHLM correlated with UGT1A1 activities (RAF approach) (UGT1A1 [4]) [%] | SMILES | In vivo concentration [5] [µM] |
| --- | --- | --- | --- | --- | --- | --- | --- |
| essentially identical | 3′-O- and 4′-O-glucuronide | UGT1A1, 1A7 and 1A9 | substrate inhibition | – | – | O=c1c(O)c(-c2ccc(O)c(O)c2)oc2ccccc12 [33′4′THF, 3,3′,4′-trihydroxyflavone] | – |
| essentially identical | 3-O-, 6-O-, and 4′-O-glucuronide | UGT1A1, 1A7 and 1A9 | substrate inhibition | – | – | O=c1c(O)c(-c2ccc(O)cc2)oc2ccc(O)cc12 [364′THF, 3,6,4′-trihydroxyflavone] | – |
| – | – | – | substrate inhibition | ~5 | 103 ± 8 | CCc1c2c(nc3ccc(O)cc13)-c1cc3c(c(=O)n1C2)COC(=O)[C@]3(O)CC [SN-38, 7-ethyl-10-hydroxycamptothecin] | < 0.1 |
